{
  "source": "patent US20220387602A1",
  "about": "“BIFUNCTIONAL DEGRADERS AND THEIR METHODS OF USE” (NOVARTIS AG, priority 2019, published 2022)",
  "format_in_all_cases": "cell-based",
  "key": {"CSK": {"molecular_target": "T1, CSK (Homo sapiens, UniProt P41240)", "T1 construct": "EGFP (after a Leu that replaces the STOP codon); expressed in transfected cells; host or cells: HEK293A (Invitrogen R70507), lentiviral transduction", "T1 sequence (P41240 whole entry)": "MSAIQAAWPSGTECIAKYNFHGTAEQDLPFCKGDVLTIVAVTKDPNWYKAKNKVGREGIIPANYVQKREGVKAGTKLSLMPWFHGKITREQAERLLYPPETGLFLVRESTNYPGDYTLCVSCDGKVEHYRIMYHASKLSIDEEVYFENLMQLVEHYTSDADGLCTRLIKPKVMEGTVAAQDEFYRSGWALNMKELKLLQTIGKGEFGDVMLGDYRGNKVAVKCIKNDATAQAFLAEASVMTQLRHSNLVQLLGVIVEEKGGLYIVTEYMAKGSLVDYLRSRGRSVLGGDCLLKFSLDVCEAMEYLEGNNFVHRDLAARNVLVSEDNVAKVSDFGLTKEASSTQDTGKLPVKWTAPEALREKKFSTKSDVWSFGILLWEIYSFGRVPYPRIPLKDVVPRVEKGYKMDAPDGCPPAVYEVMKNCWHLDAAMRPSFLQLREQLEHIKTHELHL", "assay": "CSK-GFP protein abundance flow cytometry assay in HEK293A", "details": "for CSK Amax: % protein remaining at the concentration of maximum degradation; for DC50: HEK293A CSK-GFP sensor cells, 24 h", "procedure": "(§1) Degradation of BTK, CSK, ABL2, EPHA4 and YES1 was measured in HEK293A cells (Invitrogen R70507) expressing either BTK-GFP and RFP, CSK-GFP and mCherry, GFP-ABL2 and mCherry, EPHA4-GFP and mCherry, or YES1-GFP and mCherry from a stably integrated bicistronic BTK-GFP-iresRFP, CSK-GFP-CHYSEL-mCherry, GFP-ABL2-CHYSEL-mCherry, EPHA4-GFP-CHYSEL-mCherry, or YES1-GFP-CHYSEL-mCherry construct, respectively. Reduction of the GFP signal measured by flow cytometry served as readout for BTK, CSK, ABL2, EPHA4 and YES1 degradation after degrader treatment.\n(§2) 293A BTK-GFP-Ires-RFP, CSK-GFP-CHYSEL-mCherry, GFP-ABL2-CHYSEL-mCherry, EPHA4-GFP-CHYSEL-mCherry, or YES1-GFP-CHYSEL-mCherry sensor cells were generated by lentiviral vector transduction using the pLenti6-BTK-GFP-Ires-RFP, pLenti6-mCherryCHYSEL-EGFP-ABL2, pLenti6-CSK-GFP-CHYSEL-mCherry, pLenti6-EPHA4-GFP-CHYSEL-mCherry or pLenti6-YES1-GFP-CHYSEL-mCherry sensor construct described before. Lentiviral particles were produced in HEK293FT cells (Invitrogen R70007) by co-transfection of 500 ng pLenti6-BTK-GFP-Ires-RFP or pLenti6-IKZF3-GFP-Ires-RFP, 500 ng delta8.71 and 200 ng pVSVG diluted in 100 μL OptiMEM serum free medium (Invitrogen #11058-021) that was mixed after 5 min preincubation with 3 μL of Lipofectamine2000 (Invitrogen #11668-019) in 97 μL OptiMEM serum free medium. The mix was incubated for another 20 min at RT and then added on 1 mL of a freshly prepared suspension of HEK293FT cells in a well of a 6-well plate (concentration 1.2×10^6 cells/mL). 1 day after transfection, the medium was replaced with 1.5 mL of complete growth medium (DMEM high Glucose+10% FCS+1% L-Glutamine+1% NEAA+1% NaPyr.). 48 h post transfection supernatant containing viral transducing particles was collected and frozen at −80° C.\n(§3) 2 days before transduction with viral particles 1×10^5 HEK293A cells (Invitrogen R70507) were seeded in 2 mL growth medium in a well of a 6-well plate. Infection was performed with 90 μL of collected supernatant containing viral transducing particles in 1 mL medium including 8 µg/mL polybrene. 24 h post infection, stably transfected cells were selected with blasticidin at a concentration of 8 μg/mL referred to as stable HEK293A sensor cells.\n(§4) Stable HEK293A sensor cells were maintained in complete growth medium (DMEM high Glucose+10% FCS+1% L-Glutamine+1% NEAA+1% NaPyr.) with passaging performed twice per week. […] GFP and RFP are read in the channels called FITC and PE, respectively.\n(§5) Concentration response curves plotting relative reduction of the GFP signal (measured by flow cytometry) versus 10 compound concentrations (starting concentration 10 μM, 3 fold dilution steps) of the compounds allowed generation of DC50 values."}, "ABL2": {"molecular_target": "T2, ABL2 (Homo sapiens, UniProt P42684)", "T2 construct": "expressed in transfected cells; host or cells: HEK293A (Invitrogen R70507), lentiviral transduction", "T2 sequence (P42684 whole entry, looked up)": "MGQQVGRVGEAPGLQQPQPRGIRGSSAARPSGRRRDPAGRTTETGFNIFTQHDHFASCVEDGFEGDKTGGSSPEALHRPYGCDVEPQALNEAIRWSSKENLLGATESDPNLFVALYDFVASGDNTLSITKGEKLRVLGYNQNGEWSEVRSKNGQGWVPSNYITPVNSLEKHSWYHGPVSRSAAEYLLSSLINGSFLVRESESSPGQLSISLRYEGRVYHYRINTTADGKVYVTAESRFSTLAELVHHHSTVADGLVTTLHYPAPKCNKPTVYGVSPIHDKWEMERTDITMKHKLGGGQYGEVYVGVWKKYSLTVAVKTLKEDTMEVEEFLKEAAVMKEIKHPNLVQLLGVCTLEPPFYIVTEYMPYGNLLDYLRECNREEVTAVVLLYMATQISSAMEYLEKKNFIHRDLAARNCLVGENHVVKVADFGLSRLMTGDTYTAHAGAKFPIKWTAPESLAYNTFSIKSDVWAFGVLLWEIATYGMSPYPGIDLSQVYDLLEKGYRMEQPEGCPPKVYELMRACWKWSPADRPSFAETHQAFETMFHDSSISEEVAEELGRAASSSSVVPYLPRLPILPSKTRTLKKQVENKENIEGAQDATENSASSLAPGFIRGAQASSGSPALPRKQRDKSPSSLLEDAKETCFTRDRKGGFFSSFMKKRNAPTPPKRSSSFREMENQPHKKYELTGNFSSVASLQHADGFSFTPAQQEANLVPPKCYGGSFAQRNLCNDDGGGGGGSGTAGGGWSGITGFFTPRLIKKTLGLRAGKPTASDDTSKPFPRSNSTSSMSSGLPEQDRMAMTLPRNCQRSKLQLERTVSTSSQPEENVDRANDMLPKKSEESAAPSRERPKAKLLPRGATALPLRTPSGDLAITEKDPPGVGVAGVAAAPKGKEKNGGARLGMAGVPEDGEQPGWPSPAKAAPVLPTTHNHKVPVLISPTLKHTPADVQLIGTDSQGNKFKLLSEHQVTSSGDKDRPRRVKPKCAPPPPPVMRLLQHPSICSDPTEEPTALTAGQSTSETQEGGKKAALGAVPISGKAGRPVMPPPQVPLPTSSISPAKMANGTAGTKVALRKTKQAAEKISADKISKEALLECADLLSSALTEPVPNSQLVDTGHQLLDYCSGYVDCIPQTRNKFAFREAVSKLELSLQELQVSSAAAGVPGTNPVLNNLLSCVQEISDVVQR", "assay": "GFP-ABL2 protein abundance flow cytometry assay in HEK293A", "details": "for ABL2 Amax: % protein remaining at the concentration of maximum degradation; for DC50: HEK293A GFP-ABL2 sensor cells, 24 h", "procedure": "as §1, §2, §3, §4, §5"}, "YES1": {"molecular_target": "T3, YES1 (Homo sapiens, UniProt P07947)", "T3 construct": "EGFP (after a Leu that replaces the STOP codon); expressed in transfected cells; host or cells: HEK293A (Invitrogen R70507), lentiviral transduction", "T3 sequence (P07947 whole entry, looked up)": "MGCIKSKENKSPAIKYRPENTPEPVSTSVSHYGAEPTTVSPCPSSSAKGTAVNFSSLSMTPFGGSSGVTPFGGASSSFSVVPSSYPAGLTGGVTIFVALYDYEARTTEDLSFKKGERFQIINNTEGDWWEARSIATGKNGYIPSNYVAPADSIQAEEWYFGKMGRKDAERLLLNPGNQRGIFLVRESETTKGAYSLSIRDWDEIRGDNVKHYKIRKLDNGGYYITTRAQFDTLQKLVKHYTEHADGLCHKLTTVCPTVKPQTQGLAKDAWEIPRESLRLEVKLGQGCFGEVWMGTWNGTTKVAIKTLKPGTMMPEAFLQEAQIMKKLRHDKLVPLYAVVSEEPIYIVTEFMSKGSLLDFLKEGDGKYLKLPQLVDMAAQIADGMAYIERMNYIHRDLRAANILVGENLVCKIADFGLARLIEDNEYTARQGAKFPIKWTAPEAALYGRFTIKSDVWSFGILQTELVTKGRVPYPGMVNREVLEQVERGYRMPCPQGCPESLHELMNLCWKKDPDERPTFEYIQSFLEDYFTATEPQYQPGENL", "assay": "YES1-GFP protein abundance flow cytometry assay in HEK293A", "details": "for YES1 Amax: % protein remaining at the concentration of maximum degradation; for DC50: HEK293A YES1-GFP sensor cells, 24 h", "procedure": "as §1, §2, §3, §4, §5"}, "HEK293 and TMD8 cells": {"tested_on": "HEK293 and TMD8 cells", "assay": "Proteomics experiment (TMT quantification mass spectrometry of protein abundance)", "details": "1 μM, 6 hours, FIG. 3E", "procedure": "HEK293 and TMD8 cells were treated with 1 μM dasatinib, 1 μM compound 06, 1 μM compound 07 or DMSO and protein abundance was analyzed using TMT quantification mass spectrometry. Significant changes were assessed by limma, log 2 fold changes are shown on the x-axis and p-values on the y-axis. Proteins with kinase annotations in UniProt are shown as squares and kinases with a log2 fold change≤−0.6 and a p-value≤0.01 are labeled with the corresponding gene name.\nHEK293 and TMD8 cells were treated for 6 hours with DMSO (3 replicates), 1 μM dasatinib (2 replicates), 1 μM compound 06 (3 replicates) and 1 μM compound 07 (3 replicates), respectively. TMT11plex-labeled peptides were generated with the PreOmics iST-NHS kit according to the manufacturer's protocol (PreOmics, Germany). […] The 24 fractions were analyzed with a 25 cm×75 μm ID, 1.6 μm C18 Aurora Series emitter column (IonOpticks, Australia) on an EASY-nLC 1200 system coupled to an Orbitrap™ Fusion Lumos mass spectrometer (Thermo Fisher Scientific, USA). […] The Proteome Discoverer™ 2.1 software and the SEQUEST algorithm was used for protein identification and relative quantification. Log2 fold changes of protein abundances and p-values were calculated in Python and R with the limma package (Ritchie M E et al. Limma powers differential expression analyses for RNA-sequencing and microarray studies. Nucleic Acids Res. 2015, 43(7):e47)."}},
  "data": [
    {"smiles": "COc1ccc(C(=O)N2CCC3(CCN(C(=O)CCCCCCCN4CCN(c5cc(Nc6ncc(C(=O)Nc7c(C)cccc7Cl)s6)nc(C)n5)CC4)CC3)CC2)cc1N1CCC(=O)NC1=O", "note": "[compound 06, N-(2-chloro-6-methylphenyl)-2-((6-(4-(8-(9-(3-(2,4-dioxotetrahydropyrimidin-1(2H)-yl)-4-methoxybenzoyl)-3,9-diazaspiro[5.5]undecan-3-yl)-8-oxooctyl)piperazin-1-yl)-2-methylpyrimidin-4-yl)amino)thiazole-5-carboxamide]", "values": [
      {"measurement": "CSK Amax", "setting": "CSK", "value": 4, "unit": "%"},
      {"measurement": "DC50", "setting": "CSK", "value": 4, "unit": "nM"},
      {"measurement": "ABL2 Amax", "setting": "ABL2", "value": 22, "unit": "%"},
      {"measurement": "DC50", "setting": "ABL2", "value": 2, "unit": "nM"},
      {"measurement": "YES1 Amax", "setting": "YES1", "value": 4, "unit": "%"},
      {"measurement": "DC50", "setting": "YES1", "value": 9, "unit": "nM"},
      {"measurement": "degradation of bound kinase targets (proteomics)", "setting": "HEK293 and TMD8 cells", "value": "able to degrade several of the targets to which they bind"}
    ]},
    {"smiles": "COc1ccc(C(=O)N2CCC3(CCN(C(=O)CN4CCN(c5cc(Nc6ncc(C(=O)Nc7c(C)cccc7Cl)s6)nc(C)n5)CC4)CC3)CC2)cc1N1CCC(=O)NC1=O", "note": "[compound 07, N-(2-chloro-6-methylphenyl)-2-((6-(4-(2-(9-(3-(2,4-dioxotetrahydropyrimidin-1(2H)-yl)-4-methoxybenzoyl)-3,9-diazaspiro[5.5]undecan-3-yl)-2-oxoethyl)piperazin-1-yl)-2-methylpyrimidin-4-yl)amino)thiazole-5-carboxamide]", "values": [
      {"measurement": "CSK Amax", "setting": "CSK", "value": 1, "unit": "%"},
      {"measurement": "DC50", "setting": "CSK", "value": 23, "unit": "nM"},
      {"measurement": "ABL2 Amax", "setting": "ABL2", "value": 27, "unit": "%"},
      {"measurement": "DC50", "setting": "ABL2", "value": 63, "unit": "nM"},
      {"measurement": "YES1 Amax", "setting": "YES1", "value": 11, "unit": "%"},
      {"measurement": "DC50", "setting": "YES1", "value": 124, "unit": "nM"},
      {"measurement": "degradation of bound kinase targets (proteomics)", "setting": "HEK293 and TMD8 cells", "value": "able to degrade several of the targets to which they bind"}
    ]}
  ]
}
